Measurements from patent publication EP0430108A2, “Use of oxetanocin-G for the treatment of varicella-zoster virus infections” (priority 1989, dated 1991).

Legend:
[1] = Single-dose intraperitoneal toxicity in the mouse; assay type: in vivo; details: 400 mg/kg intraperitoneally, once
Text: OXT-G and a pharmacologically acceptable salt thereof are each characterized by a low toxicity and a low cumulative toxicity upon repeated administration.

[2] = test system: YSR strain (TK^- -VZV); assay: Anti-VZV activity, plaque reduction in human fetal pulmonary cells, YSR strain; assay type: cell-based, varicella-zoster virus; details: resistant strain of VZV (YSR, TK^-, drug-resistant); human fetal pulmonary cell monolayer, approximately 20 PFU, 5 days at 37 °C, plaque count
Method: (§1) Next, the anti-VZV effect of OXT-G will be described in detail by reference to the following Test Example. Anti-VZV activity: • (1) Determination method A monolayer of human fetal pulmonary cells, which had been grown in Eagle minimum essential medium containing 10 % of newborn calf serum, 60 µg/ml of kanamycin and 0.075 % of NaHCO₃, (used as a growth medium) in a 96-well microplate, was inoculated with approximately 20 PFU of various viruses and incubated at 37 °C for 2 hours. After 0.1 ml of 2 % newborn calf serum containing OXT-G was freshly supplied, the incubation was continued at 37 °C for 5 days. Plaques in each well were counted under a microscope and the ratio (%) thereof to the plaque count of a control (no addition) was calculated to prepare a graph. Based on the graph, the median effective dose (ED₅₀) was determined. The employed virus stains were as follows: YS strain: TK^+ strain (carrying thymidine kinase) isolated from a patient of varicella (TK^+ -VZV). […] Thus it is expected as an excellent anti-VZV agent.

[3] = test system: YS strain (TK^+ -VZV); assay: Anti-VZV activity, plaque reduction in human fetal pulmonary cells, YS strain; assay type: cell-based, varicella-zoster virus; details: nonresistant strain of VZV (YS, TK^+); human fetal pulmonary cell monolayer, approximately 20 PFU, 5 days at 37 °C, plaque count
Method: as §1

## Nc1nc2c(ncn2C2OC(CO)C2CO)c(=O)[nH]1 (stereo not drawn) [OXT-G, oxetanocin-G]
[1]
  symptom of intoxication: no symptom of intoxication could be observed
[2]
  antiviral effects: excellent antiviral effects
[3]
  antiviral effects: excellent antiviral effects
